Article PMC11501026, “L-Arginine and asymmetric dimethylarginine (ADMA) transport across the mouse blood-brain and blood-CSF barriers: Evidence of saturable transport at both interfaces and CNS to blood efflux” (PLOS ONE, 2024)
Where “and” joins values, the source holds several entries; their conditions need not be identical. Identical values can stand only once. Like-named read-outs stand apart in the source and are kept apart here.

Key:
Assay type in all cases: in vivo, mouse
[1] = capillary depletion analysis after in situ brain perfusion; design: [3H] ADMA and [14C] Sucrose uptake, homogenate / Difference (ADMA minus Sucrose), homogenate / [3H] ADMA and [14C] Sucrose uptake, supernatant / Difference (ADMA minus Sucrose), supernatant / uptake, homogenate / uptake, supernatant: unit not given here; conditions: for Kp at 30 min: other: in situ brain perfusion with artificial plasma
Description: The microvasculature within a sample of brain tissue can be separated from the brain parenchyma using capillary depletion analysis. Following perfusion, the remaining brain tissue after microdissection of the regions described above (typically 200–300 mg) underwent capillary depletion following a method modified for mouse. […]

[2] = cross-inhibition, in situ perfusion: [^3H]-ADMA with 100 μM unlabelled L-arginine; conditions: male, Balb/c, mouse, brain homogenate, other: in situ brain perfusion, with 100 µM unlabelled L-arginine, [3H] ADMA + [14C] Sucrose + 100uM Arg, 10 mins, Balb/c ♂, 5ml/min; mean; read-out: uptake, homogenate
Description: (§1) Self-inhibition experiments were also performed. […] Cross-competition experiments were also performed.
(§2) The percentage change in the RTissue uptake values achieved in the absence or presence of an unlabelled inhibitor can be calculated by means of Eq 4.
(§3) %change=RTissue−RInhibition/RTissue×100 Eq 4
(§4) We define RInhibition as the RTissue uptake in the presence of an inhibitor in the artificial plasma.
(§5) A decrease in the uptake of radiolabelled solute in the presence of unlabelled inhibitor is indicative of a saturable influx transport system. Conversely, an increase in the uptake of radiolabelled solute in the presence of unlabelled inhibitor is indicative of a saturable efflux transport system.

[3] = system: [3H]-ADMA transport across the blood-brain and blood-CSF barriers; experiment: as above; conditions: male, Balb/c, mouse, other: in situ brain perfusion, with 100 µM unlabelled L-arginine, [3H] ADMA + [14C] Sucrose + 100uM Arg, 10 mins, Balb/c ♂, 5ml/min
Description: as §1, §2, §3, §4, §5

[4] = system: [^3H]-ADMA transport across the blood-brain and blood-CSF barriers; experiment: as above; conditions: [3H] ADMA + [14C] Sucrose + 100uM Arg, 10 mins, Balb/c ♂, 5ml/min; individual mice
Description: as §1, §2, §3, §4, §5

[5] = system: [3H]-ADMA transport across the blood-brain and blood-CSF barriers; experiment: self-inhibition, in situ perfusion: [^3H]-ADMA with 100 μM unlabelled ADMA; conditions: male, Balb/c, mouse, other: in situ brain perfusion, with unlabelled ADMA 100 µM, [3H] ADMA + [14C] Sucrose + 100uM un-labelled ADMA, 10 mins, Balb/c ♂, 5ml/min, mean
Description: as §1, §2, §3, §4, §5

## OC[C@H]1O[C@@](CO)(O[C@H]2O[C@H](CO)[C@@H](O)[C@H](O)[C@H]2O)[C@@H](O)[C@@H]1O [[^14C]-sucrose, reference compound]
[1]; 2.5 mins, Balb/c ♂, 5ml/min, individual mouse
  [3H] ADMA and [14C] Sucrose uptake, supernatant: 0.005063
[1]; [3H] ADMA + [14C] Sucrose, 30 mins, Balb/c ♂, 5ml/min, individual mice
  uptake, pellet: 0.004118 and 0.004644 and 0.005073
[1]; male, BALB/c, mouse, capillary depletion pellet (endothelial cell-enriched), [3H] ADMA and [14C] Sucrose uptake, pellet, 20 mins, 5ml/min, mean
  Kp at 20 min, 62.5 nM: 0.00274
[1]; male, BALB/c, mouse, capillary depletion pellet (endothelial cell-enriched), pellet: [14C] Sucrose, 30 mins, Balb/c ♂, 5ml/min, single mouse
  Kp at 30 min: 0.00943
[1]; male, BALB/c, mouse, capillary depletion supernatant (brain parenchyma), [3H] ADMA and [14C] Sucrose uptake, supernatant, 2.5 mins, 5ml/min, mean
  Kp at […]: 0.0098
[1]; male, BALB/c, mouse, endothelial cell-enriched pellet (capillary depletion), [3H] ADMA and [14C] Sucrose uptake, pellet, 2.5 mins, 5ml/min, mean
  Kp at […]: 0.00237
[1]; male, BALB/c, mouse, endothelial cell-enriched pellet (capillary depletion), other: in situ brain perfusion, [3H] ADMA + [14C] Sucrose, 30 mins, Balb/c ♂, 5ml/min, individual mice, read-out: uptake, pellet
  Kp at 30 min, 62.5 nM: 0.00308
[1]; male, BALB/c, mouse, endothelial cell-enriched pellet (capillary depletion), other: in situ brain perfusion, [3H] ADMA + [14C] Sucrose, 30 mins, Balb/c ♂, 5ml/min, mean, read-out: uptake, pellet
  Kp at 30 min, 62.5 nM: 0.00455
[1]; male, BALB/c, mouse, endothelial cell-enriched pellet (capillary depletion), pellet, 2.5 mins, uncorrected, given as fraction, read-out: tissue or CSF to plasma ratio (mean)
  Kp at […]: 0.00218
[1]; male, BALB/c, mouse, endothelial cell-enriched pellet (capillary depletion), pellet, 10 mins, uncorrected, given as fraction, read-out: tissue or CSF to plasma ratio (mean)
  Kp at 10 min: 0.00461
[1]; male, BALB/c, mouse, whole-brain homogenate (capillary depletion), homogenate: [14C] Sucrose, 30 mins, Balb/c ♂, 5ml/min, mean
  Kp at 30 min: 0.0653
[1]; male, BALB/c, mouse, whole-brain homogenate (capillary depletion), other: in situ brain perfusion, [3H] ADMA + [14C] Sucrose, 30 mins, Balb/c ♂, 5ml/min, mean, read-out: uptake, homogenate
  Kp at 30 min, 62.5 nM: 0.0336
[1]; male, BALB/c, mouse, whole-brain homogenate (capillary depletion), other: in situ brain perfusion, [3H] ADMA and [14C] Sucrose uptake, homogenate, CONTROL, 10 mins, Balb/c ♂, 5ml/min, mean
  Kp at 10 min, 62.5 nM: 0.0971
[1]; male, Balb/c, mouse, endothelial cell-enriched pellet after capillary depletion, other: in situ brain perfusion, with unlabelled ADMA 3 µM, Arginine / Sucrose uptake, pellet, mean, [3H] Arginine + [14C] Sucrose + 3 uM ADMA, 10 mins, Balb/c ♂, 5ml/min, mean
  Kp at 10 min: 0.00326
[1]; male, Balb/c, mouse, endothelial cell-enriched pellet after capillary depletion, other: in situ brain perfusion, with unlabelled ADMA 10 µM, Arginine / Sucrose uptake, pellet, mean, [3H] Arginine + [14C] Sucrose + 10 uM ADMA, 10 mins, Balb/c ♂, 5ml/min, mean
  Kp at 10 min: 0.00425
[1]; male, Balb/c, mouse, endothelial cell-enriched pellet, other: in situ brain perfusion, with unlabelled ADMA 100 µM, Arginine / Sucrose uptake, pellet, mean, [3H] Arginine + [14C] Sucrose + 100µM un-labelled ADMA, 10 mins, Balb/c ♂, 5ml/min, mean
  Kp at 10 min: 0.00383
[1]; male, Balb/c, mouse, supernatant (brain parenchyma) after capillary depletion, other: in situ brain perfusion, with unlabelled ADMA 3 µM, Arginine / Sucrose uptake, supernatant, mean, [3H] Arginine + [14C] Sucrose + 3 uM ADMA, 10 mins, Balb/c ♂, 5ml/min, mean
  Kp at 10 min: 0.0159
[1]; male, Balb/c, mouse, supernatant (brain parenchyma), other: in situ brain perfusion, with unlabelled ADMA 100 µM, Arginine / Sucrose uptake, supernatant, [3H] Arginine + [14C] Sucrose + 100µM un-labelled ADMA, 10 mins, Balb/c ♂, 5ml/min, single mice
  Kp at 10 min: 0.0158
[2]
  Kp at 10 min, 62.5 nM: 0.0365
[3]; choroid plexus, individual mice, read-out: uptake into choroid plexus
  Kp at 10 min, 62.5 nM: 0.14
[3]; choroid plexus, mean, read-out: uptake into choroid plexus
  Kp at 10 min, 62.5 nM: 0.145
[3]; hypothalamus, mean, read-out: uptake into hypothalamus
  Kp at 10 min, 62.5 nM: 0.0327
[3]; pituitary gland, mean, read-out: uptake into pituitary gland
  Kp at 10 min, 62.5 nM: 0.113
[3]; pons, mean, read-out: uptake into pons
  Kp at 10 min, 62.5 nM: 0.0462
[4]
  uptake, pellet: 0.001402
[5]; CSF, read-out: uptake into CSF
  Kp at 10 min, 62.5 nM: 0.138
[5]; pituitary gland, read-out: uptake into pituitary gland
  Kp at 10 min, 62.5 nM: 0.0955
